Data reported in patent US8568814B2, “Lanthionine derivatives” (Ajinomoto Co., Inc., priority 2009, dated 2013).
One block for each molecule: values may come before it.

Columns and labels:
human CaSR [1] = biological target: T1, human CaSR (Homo sapiens, UniProt P41180, E1011Q); assay: Evaluation (1) and (2) of CaSR agonist activity (Ca2+ fluorescence in transfected 293E cells); type: cell-based; conditions: 293E cells transfected with hCaSR/pcDNA3.1; Calcium 4/5 Assay Kit; methods (1) and (2)
T1 construct: expressed in transfected cells; host or cells: 293E cells (EBNA1-expression HEK293 cells, ATCC No. CRL-10852), transient transfection of hCaSR/pcDNA3.1
T1 sequence (P41180 20-1078 E1011Q): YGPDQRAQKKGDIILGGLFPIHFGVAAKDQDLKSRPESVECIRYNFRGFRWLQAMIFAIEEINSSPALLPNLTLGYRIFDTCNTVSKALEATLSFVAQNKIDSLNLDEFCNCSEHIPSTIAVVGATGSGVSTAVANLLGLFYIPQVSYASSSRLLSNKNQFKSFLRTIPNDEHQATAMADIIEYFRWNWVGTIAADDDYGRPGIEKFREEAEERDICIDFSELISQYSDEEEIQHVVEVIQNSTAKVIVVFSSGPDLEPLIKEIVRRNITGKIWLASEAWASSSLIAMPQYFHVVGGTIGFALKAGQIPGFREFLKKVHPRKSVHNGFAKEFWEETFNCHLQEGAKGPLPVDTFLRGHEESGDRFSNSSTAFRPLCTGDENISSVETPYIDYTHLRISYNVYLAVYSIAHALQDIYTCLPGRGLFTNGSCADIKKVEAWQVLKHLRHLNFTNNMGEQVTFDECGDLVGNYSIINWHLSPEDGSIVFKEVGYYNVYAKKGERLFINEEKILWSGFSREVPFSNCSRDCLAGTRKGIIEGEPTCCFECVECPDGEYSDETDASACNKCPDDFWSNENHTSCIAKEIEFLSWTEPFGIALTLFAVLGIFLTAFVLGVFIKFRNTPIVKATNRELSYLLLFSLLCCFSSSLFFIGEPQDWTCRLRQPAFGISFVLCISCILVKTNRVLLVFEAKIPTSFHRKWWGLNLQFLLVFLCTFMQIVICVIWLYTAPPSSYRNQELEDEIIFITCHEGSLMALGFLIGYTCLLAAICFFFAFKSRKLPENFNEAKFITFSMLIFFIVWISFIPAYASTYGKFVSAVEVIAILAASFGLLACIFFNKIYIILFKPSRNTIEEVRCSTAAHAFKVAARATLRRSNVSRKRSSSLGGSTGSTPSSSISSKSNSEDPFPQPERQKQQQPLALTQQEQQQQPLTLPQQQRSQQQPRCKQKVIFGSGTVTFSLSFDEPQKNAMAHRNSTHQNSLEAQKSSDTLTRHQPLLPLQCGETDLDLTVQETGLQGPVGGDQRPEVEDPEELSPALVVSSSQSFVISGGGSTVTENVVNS
Protocol: (§1) 293E Cells (EBNA1-expression HEK293 cells, ATCC No. CRL-10852) were cultivated in DMEM/Ham's-F12 (3.15/ml Glucose-containing Dulbecco's modified Eagle medium; available from NAKARAI TESK Company) containing 10% fetal calf serum in the presence of 200 μg/ml of G418 (available from Genetisine Company). The cultured cells were inoculated in F25 flask at a density of 3×10^6 cells/10 ml, then the content of the flask was allowed to stand for 24 hours in a CO2 incubator (5% CO2, 37° C.), and then the human CaSR-expression plasmid hCaSR/pcDNA3.1 was transfected using a transfection agent Fugene 6 (available from Roche Company). After allowing the flask to stand in a CO2 incubator for 6 to 7 hours, the cells were recovered using 10% fetal calf serum-containing DMEM/Ham's-F12 and then inoculated in each well of a poly-D-lysine coat 96-well plate (BD-Biocoat) at a density of 70,000 cells/well.
(§2) After allowing the well plate to stand in a CO2 incubator for 24 hours, the culture medium was removed from each well of the 96-well plate to which the cells had been inoculated, and a solution of Ca^2+ fluorescent indicator Calcium 4 Assay Kit (available from Molecular Devices Company) in an Assay Buffer (containing 146 mM of NaCl, 5 mM of KCl, 1 mM of MgSO4, 1 mg/ml of Glucose, 20 mM of HEPES (pH 7.2), and 0.75 to 1.25 mM of CaCl2) in an amount of 200 μl/well was added to each well, and each well was allowed to stand at 37° C. for one hour and then at room temperature for 10 minutes to thus make the cells take the indicator.
(§3) To each well of the 96-well plate, a solution of a test compound in a 0.1% BSA-containing Assay Buffer in an amount of 50 μl/well was added, and the wells were inspected for any change in the intensity of fluorescent light rays emitted therefrom for 3 minutes using FLEX Station (available from Molecular Devices Company).
(§4) Method for the Calculation of EC50
(§5) The difference (RFU (Max-Min) between the maximum and minimum intensities of fluorescent light rays observed before and after the addition of the test compound were calculated according to the automatic calculation by the FLEX Station. In this respect, the activity rate of a test compound was calculated, while the RFU (Max-Min) value observed when adding a test compound in a maximum concentration was defined to be 100% and the RFU (Max-Min) value observed when using a 0.1% BSA-containing Assay Buffer free of any added test compound was defined to be 0%, then the curve-fitting was carried out using a software Xfit for spreadsheet or a GraphPad Prism to thus determine each corresponding EC50 value as the concentration of each test compound observed at the activity rate of 50%.
as §1, with “plasmid:” for “plasmid”, “384-well” for “96-well”, “2×10^6” for “70,000”, “cells/well. […]” for “cells/well.”

human CaSR [2] = biological target: T2, human CaSR (Homo sapiens, UniProt P41180); assay: as above; type: cell-based; conditions: ratio to γ-Glu-Cys
T2 construct: expressed in transfected cells; host or cells: 293E cells (EBNA1-expression HEK293 cells, ATCC No. CRL-10852), transient transfection of hCaSR/pcDNA3.1
T2 sequence (P41180 20-1078 E1011Q): T1 sequence (P41180 20-1078 E1011Q)
Protocol: as §1, §2, §3, §4, §5
as §1, with “plasmid:” for “plasmid”, “384-well” for “96-well”, “2×10^6” for “70,000”, “cells/well. […]” for “cells/well.”

panelists [3] = assay: Quantitative organoleptic evaluation of kokumi-imparting activity in umami/salty solution; type: in vivo, human; conditions: for Intensity of Kokumi After Taste / Intensity of Kokumi Initial-Middle Taste: score scale -5 to +5, n=5
Protocol: The scoring was carried out using the linear-scale technique, in which each corresponding score was plotted on a straight line on which the scores equal to −5, 0 and +5 had been expressly specified. In addition, persons selected as panelists in these evaluation tests were persons who had been engaged in the development of a seasoning over a cumulative period of at least a half year, and who could so judge that the difference between γ-Glu-Cys-Gly and γ-Glu-Val-Gly, each of which was added to a solution having umami and salty taste, was about 10 times (this ability was confirmed at regular intervals). In this respect, the term “initial-middle taste” means the taste detected from 0 to 5 seconds after placing and maintaining each sample in each panelist's mouth, and the term “after taste” means that detected thereafter.

panelists [4] = assay: Quantitative organoleptic evaluation of kokumi-imparting activity in dried-bonito extract; type: in vivo, human; conditions: for Intensity of Kokumi After Taste / Intensity of Kokumi Initial-Middle Taste: score scale -5 to +5, n=5
Protocol: The pH value of the samples used was adjusted to that of the control free of any test compound (i.e., the pH value of the latter +0.2). […] The scoring was carried out using the linear-scale technique, in which each corresponding score was plotted on a straight line on which the scores equal to −5, 0 and +5 had been expressly specified. […] In this respect, the term “initial-middle taste” means the taste detected from 0 to 5 seconds after placing and maintaining each sample in each panelist's mouth, and the term “after taste” means that detected thereafter.

panelists [5] = assay: Quantitative organoleptic evaluation of kokumi-imparting activity in cow's milk; type: in vivo, human; conditions: for Intensity of Kokumi After Taste / Intensity of Kokumi Initial-Middle Taste: score scale -5 to +5, n=5
Protocol: The quantitative organoleptic evaluation test was carried out according to the following procedures: The intensity of the kokumi-imparting activity of the test compound was determined using a mixture obtained by adding, to the commercially available cow's milk (fat content: 3.6%), […] The pH value of the samples used was adjusted to that of the control free of any test compound (i.e., the pH value of the latter +0.2). […] The scoring was carried out using the linear-scale technique, in which each corresponding score was plotted on a straight line on which the scores equal to −5, 0 and +5 had been expressly specified. […] In this respect, the term “initial-middle taste” means the taste detected during the term ranging from 0 to 5 seconds after keeping each sample in each panelist's mouth and the term “after taste” means that detected thereafter.

[6] = 0.0001 g/dL in water with MSG 0.05, IMP 0.05, NaCl 0.5 g/dL
[7] = 0.0005 g/dL in water with MSG 0.05, IMP 0.05, NaCl 0.5 g/dL
[8] = 0.0001 g/dL in dried bonito extract 20.0 g/dL with common salt 0.5 g/dL
[9] = 0.0005 g/dL in dried bonito extract 20.0 g/dL with common salt 0.5 g/dL
[10] = 0.0001 g/dL in cow's milk (fat content 3.6%)
[11] = 0.0005 g/dL in cow's milk (fat content 3.6%)
[12] = 0.01 g/dL, reference standard for the scoring
[13] = 0.001 g/dL in water with MSG 0.05, IMP 0.05, NaCl 0.5 g/dL
[14] = 0.001 g/dL in dried bonito extract 20.0 g/dL with common salt 0.5 g/dL
[15] = 0.001 g/dL in cow's milk (fat content 3.6%)

Structure (SMILES): N[C@@H](CCC(=O)N[C@H]1CSCCC(C(=O)O)NC1=O)C(=O)O (stereo partly drawn) [Compound 21]
EC50 (human CaSR [1]): 1.85 µM

Structure (SMILES): C[C@@H]1SC[C@H](NC(=O)CC[C@H](N)C(=O)O)C(=O)N[C@@H]1C(=O)O [Compound 29]
EC50 (human CaSR [1]): 0.58 µM

Structure (SMILES): N[C@@H](CCC(=O)NC1CCCC(C(=O)O)NC1=O)C(=O)O (stereo partly drawn) [Compound 35]
EC50 (human CaSR [1]): 0.199 µM

Structure (SMILES): N[C@@H](CCC(=O)N[C@@H](CS)C(=O)O)C(=O)O [γ-Glu-Cys, reference compound]
EC50 (human CaSR [1]): 0.46 µM

Structure (SMILES): N[C@@H](CCC(=O)N[C@@H](CS)C(=O)NCC(=O)O)C(=O)O [γ-Glu-Cys-Gly, reference compound]
intensity of the kokumi, after taste (panelists [3]; [12]): 3.0 | intensity of the kokumi, initial-middle taste (panelists [3]; [12]): 3.0 | intensity of the kokumi, after taste (panelists [4]; [12]): 3.0 | intensity of the kokumi, initial-middle taste (panelists [4]; [12]): 3.0 | intensity of the kokumi, after taste (panelists [5]; [12]): 3.0 | intensity of the kokumi, initial-middle taste (panelists [5]; [12]): 3.0

Structure (SMILES): CC(C)[C@H](NC(=O)CC[C@H](N)C(=O)O)C(=O)NCC(=O)O [γ-Glu-Val-Gly, reference compound]
Intensity of Kokumi After Taste (panelists [3]; [13]): 3.0 | Intensity of Kokumi Initial-Middle Taste (panelists [3]; [13]): 2.5 | Comments for the Evaluation (panelists [3]; 0.001 g/dL in water with MSG, IMP, NaCl): The kokumi is strengthened mainly | Intensity of Kokumi After Taste (panelists [4]; [14]): 3.0 | Intensity of Kokumi Initial-Middle Taste (panelists [4]; [14]): 2.5 | Comments for the Evaluation (panelists [4]; 0.001 g/dL in dried bonito extract solution): The fish meat taste of the dried | Comments for the Evaluation (panelists [5]; 0.001 g/dL in cow's milk): The thickness feeling of the cow's | Intensity of Kokumi After Taste (panelists [5]; [15]): 3.0 | Intensity of Kokumi Initial-Middle Taste (panelists [5]; [15]): 2.5

The next lines start with results.

EC50 (human CaSR [1]): 14.3 µM
Structure (SMILES): N[C@@H](CCC(=O)N[C@H]1CSC[C@H](C(=O)O)NC1=O)C(=O)O [Compound 8a]

CaSR agonist activity relative to that of γ-Glu-Cys (human CaSR [2]): about 9 times | EC50 (human CaSR [1]): 0.053 µM
Structure (SMILES): N[C@@H](CCC(=O)N[C@H]1CSC[C@@H](C(=O)O)NC1=O)C(=O)O [Compound 8b]
Intensity of Kokumi After Taste (panelists [3]; [6]): 2.4 | Intensity of Kokumi Initial-Middle Taste (panelists [3]; [6]): 2.3 | kokumi-imparting activity (in words) (panelists [3]; 0.0001 to 0.0005 g/dL in water with MSG, IMP, NaCl): showed its kokumi-imparting activity over the wide range of the foregoing added concentrations | Intensity of Kokumi After Taste (panelists [3]; [7]): 3.5 | Intensity of Kokumi Initial-Middle Taste (panelists [3]; [7]): 3.4 | Intensity of Kokumi After Taste (panelists [4]; [8]): 2.5 | Intensity of Kokumi Initial-Middle Taste (panelists [4]; [8]): 2.3 | kokumi-imparting activity (in words) (panelists [4]; 0.0001 to 0.0005 g/dL in dried bonito extract solution): showed its kokumi-imparting activity over the wide range of the foregoing added concentrations | Intensity of Kokumi After Taste (panelists [4]; [9]): 3.7 | Intensity of Kokumi Initial-Middle Taste (panelists [4]; [9]): 3.5 | Intensity of Kokumi After Taste (panelists [5]; [10]): 2.3 | Intensity of Kokumi Initial-Middle Taste (panelists [5]; [10]): 2.4 | kokumi-imparting activity (in words) (panelists [5]; 0.0001 to 0.0005 g/dL in cow's milk): showed its kokumi-imparting activity over the wide range of the foregoing added concentrations | Intensity of Kokumi After Taste (panelists [5]; [11]): 3.5 | Intensity of Kokumi Initial-Middle Taste (panelists [5]; [11]): 3.5

EC50 (human CaSR [1]): 20 µM
Structure (SMILES): N[C@@H](CCC(=O)N[C@@H]1CSC[C@@H](C(=O)O)NC1=O)C(=O)O [Compound 8c]

EC50 (human CaSR [1]): 1.95 µM
Structure (SMILES): N[C@@H](CCC(=O)N[C@@H]1CSC[C@H](C(=O)O)NC1=O)C(=O)O [Compound 8d]
